US20240374602A1, “METHODS FOR TREATING NEUROGENERATIVE DISEASES” (PTC THERAPEUTICS, INC., priority 2021, published 2024)

test system: MAPT 3R mRNA; test: RT-qPCR Assay to Quantify MAPT 3R mRNA in Cells; type: cell-based; parameters: key to EC2X: An EC2x value≥3000 nM is indicated by “inactive.”; An EC2x value between >1500 nM and ≤3000 nM is indicated by one star (*); An EC2x value between >1000 nM and ≤1500 nM is indicated by two stars (**); An EC2x value between >500 nM and ≤1000 nM is indicated by three stars (***); An EC2x value between >50 nM and ≤500 nM is indicated by four stars (****); An EC2x value≤50 nM is indicated by five stars (*****); conditions: cells incubated with compound 24 h; 7-point concentration curve; in house MAPT minigene 3R primer/probe with GAPDH assay; EC2x interpolated from dose response curve
Experimental: RT-qPCR Assay to Quantify MAPT 3R mRNA in Cells
Test compounds were serially diluted 3.16-fold in 100% DMSO to generate a 7-point concentration curve. Aliquots of 0.5 μL of diluted compounds were transferred to a 96-well flat bottom plate by a liquid handler. An aliquot of 0.5 μL DMSO was also transferred to separate wells and used as controls. Duplicate samples were set up for each compound concentration and for the DMSO control.
Cells were thawed and incubated in cell culture media (DMEM, 1 FBS, and No antibiotic cocktail) for 72 h. Cells were trypsinized, counted, and re-suspended to a concentration of 200,000 cells/mL in cell culture media. A 100 μL aliquot of the cell suspensions were plated at 20,000 cells per well in the compound containing 96 well microtiter plate and incubated for in a cell culture incubator (37° C., […], 100% relative humidity).
After 24 h, media was aspirated from the cells and 20 μL of the RCL2 lysis buffer (10 mM Tris-HCL pH 7.4, 150 mM NaCl, […]) was added to each well and incubated at RT for 1 mi. Chilled nuclease free water (140 μL per well) was added and the plates were immediately transferred on ice. After 1 min on ice, plates were frozen at −80° C. overnight.
Preparation of RT-PCR Reaction Mixture:
An aliquot of 4 μL/well of the cell lysates was transferred using the liquid handler to the Armadillo 384-Well PCR plate containing 6 μL/well of the RT-qPCR reaction mixture that was prepared as detailed above. The plates were then sealed with MicroAmp™ Optical Adhesive Film followed by spinning down for 1 min and placed in the CFX384 thermocycler (BioRad).
The RT-qPCR was carried out at the following temperatures for the indicated time: • Step 1: 48° C. (30 min) • Step 2: 95° C. (10 min) • Step 3: 95° C. (15 sec) • Step 4: 60° C. (1 min); then, repeated Steps 3 and 4 for a total of 40 cycles.
The percent exon 4 skipping was calculated for each dose of compound treatment using Equations 1 and 2.
Data were fit to a dose response curve and the EC2x was interpolated using XLfit® statistical and curve fitting package.
An EC2x value between >1000 nM and ≤1500 nM is indicated by two stars (**). An EC2x value between >500 nM and ≤1000 nM is indicated by three stars (***). An EC2x value between >50 nM and ≤500 nM is indicated by four stars (****). An EC2x value≤50 nM is indicated by five stars (*****).

Question: For `Cc1c(C[C@H](C)N)sc2c(NCc3cncs3)nc(Cl)nc12` [Cpd 74, 6-[(2S)-2-aminopropyl]-2-chloro-7-methyl-N-[(1,3-thiazol-5-yl)methyl]thieno[3,2-d]pyrimidin-4-amine], which EC (2-fold) is on record?
Answer: ≤ 0.05 µM

Question: `Cc1cnc(CNc2nc(Cl)nc3c(C)c(C[C@H](C)N)sc23)s1` [Cpd 31, 6-[(2S)-2-aminopropyl]-2-chloro-7-methyl-N-[(5-methyl-1,3-thiazol-2-yl)methyl]thieno[3,2-d]pyrimidin-4-amine] was tested. Which EC (2-fold) did it give?
Answer: 1.5 to 3 µM

Question: Which EC (2-fold) does the source give for `Cc1c(C[C@H](C)N)sc2c(NCc3nc(F)cs3)nc(Cl)nc12` [Cpd 92, 6-[(2S)-2-aminopropyl]-2-chloro-N-[(4-fluoro-1,3-thiazol-2-yl)methyl]-7-methylthieno[3,2-d]pyrimidin-4-amine] here?
Answer: 0.05 to 0.5 µM

Question: Which EC (2-fold) does the source give for `Cc1csc2c(NCc3ccncc3)nc(Cl)nc12` [Cpd 23, 2-chloro-7-methyl-N-[(pyridin-4-yl)methyl]thieno[3,2-d]pyrimidin-4-amine] here?
Answer: 0.05 to 0.5 µM

Question: `CC(C)[C@H](N)Cc1cc2nc(Cl)nc(NCc3ccco3)c2s1` [Cpd 5, 6-[(2R)-2-amino-3-methylbutyl]-2-chloro-N-[(furan-2-yl)methyl]thieno[3,2-d]pyrimidin-4-amine] was tested. Which EC (2-fold) did it give?
Answer: 0.05 to 0.5 µM

Question: With `Cc1ccc(CNc2nc(Cl)nc3c(C)c(C[C@H](C)N)sc23)o1` [Cpd 24, 6-[(2S)-2-aminopropyl]-2-chloro-7-methyl-N-[(5-methylfuran-2-yl)methyl]thieno[3,2-d]pyrimidin-4-amine] as the compound, how does the EC (2-fold) read?
Answer: 0.05 to 0.5 µM

Question: `Cc1c(C[C@H](C)N)sc2c(NCc3ncc(F)s3)nc(Cl)nc12` [Cpd 93, 6-[(2S)-2-aminopropyl]-2-chloro-N-[(5-fluoro-1,3-thiazol-2-yl)methyl]-7-methylthieno[3,2-d]pyrimidin-4-amine] was tested. Which EC (2-fold) did it give?
Answer: 0.05 to 0.5 µM

Question: Which EC (2-fold) does the source give for `Cc1c(C[C@H](C)N)sc2c(NCc3ccc(F)s3)nc(Cl)nc12` [Cpd 33, 6-[(2S)-2-aminopropyl]-2-chloro-N-[(5-fluorothiophen-2-yl)methyl]-7-methylthieno[3,2-d]pyrimidin-4-amine] here?
Answer: 0.05 to 0.5 µM

Question: `Cc1c(C[C@H](C)N)sc2c(NCc3cccs3)nc(Cl)nc12` [Cpd 28, 6-[(2S)-2-aminopropyl]-2-chloro-7-methyl-N-[(thiophen-2-yl)methyl]thieno[3,2-d]pyrimidin-4-amine] was tested. Which EC (2-fold) did it give?
Answer: ≤ 0.05 µM

Question: `Cc1c(C[C@@H](N)CCF)sc2c(NCc3ccco3)nc(Cl)nc12` [Cpd 51, 6-[(2S)-2-amino-4-fluorobutyl]-2-chloro-N-[(furan-2-yl)methyl]-7-methylthieno[3,2-d]pyrimidin-4-amine] was tested. Which EC (2-fold) did it give?
Answer: ≤ 0.05 µM

Question: Which EC (2-fold) does the source give for `Cc1c(C[C@H](C)N)sc2c(NCc3ccco3)nc(Cl)nc12` [Cpd 12, 6-[(2S)-2-aminopropyl]-2-chloro-N-[(furan-2-yl)methyl]-7-methylthieno[3,2-d]pyrimidin-4-amine] here?
Answer: ≤ 0.05 µM

Question: How did the EC (2-fold) turn out when `Cc1c(C[C@H](C)N)sc2c(NCc3sccc3F)nc(Cl)nc12` [Cpd 90, 6-[(2S)-2-aminopropyl]-2-chloro-N-[(3-fluorothiophen-2-yl)methyl]-7-methylthieno[3,2-d]pyrimidin-4-amine] was run?
Answer: 0.05 to 0.5 µM

Question: Which EC (2-fold) does the source give for `Cc1c(C[C@H](C)N)sc2c(NCc3cnco3)nc(Cl)nc12` [Cpd 75, 6-[(2S)-2-aminopropyl]-2-chloro-7-methyl-N-[(1,3-oxazol-5-yl)methyl]thieno[3,2-d]pyrimidin-4-amine] here?
Answer: 0.5 to 1 µM

Question: How did the EC (2-fold) turn out when `Cc1c(C[C@H](C)NC2CCC2)sc2c(NCc3ccco3)nc(Cl)nc12` [Cpd 78, 2-chloro-6-[(2S)-2-(cyclobutylamino)propyl]-N-[(furan-2-yl)methyl]-7-methylthieno[3,2-d]pyrimidin-4-amine] was run?
Answer: 1.5 to 3 µM

Question: `C[C@H](N)Cc1sc2c(NCc3cccs3)nc(Cl)nc2c1C1CC1` [Cpd 86, 6-[(2S)-2-aminopropyl]-2-chloro-7-cyclopropyl-N-[(thiophen-2-yl)methyl]thieno[3,2-d]pyrimidin-4-amine] was tested. Which EC (2-fold) did it give?
Answer: 0.05 to 0.5 µM

Question: For `Cc1c(C[C@@H](C)CN)sc2c(NCc3ccco3)nc(Cl)nc12` [Cpd 72, 6-[(2R)-3-amino-2-methylpropyl]-2-chloro-N-[(furan-2-yl)methyl]-7-methylthieno[3,2-d]pyrimidin-4-amine], which EC (2-fold) is on record?
Answer: 1.5 to 3 µM

Question: With `Cc1c(C[C@H](C)N)sc2c(NCc3nccs3)nc(Cl)nc12` [Cpd 29, 6-[(2S)-2-aminopropyl]-2-chloro-7-methyl-N-[(1,3-thiazol-2-yl)methyl]thieno[3,2-d]pyrimidin-4-amine] as the compound, how does the EC (2-fold) read?
Answer: ≤ 0.05 µM

Question: Which EC2X does the source give for `Cc1c(C[C@H](C)N)sc2c(NCc3c(F)cncc3F)nc(Cl)nc12` [Cpd 64, 6-[(2S)-2-aminopropyl]-2-chloro-N-[(3,5-difluoropyridin-4-yl)methyl]-7-methylthieno[3,2-d]pyrimidin-4-amine] here?
Answer: inactive

Question: With `C[C@H](N)Cc1sc2c(NCc3cccs3)nc(Cl)nc2c1Br` [Cpd 82, 6-[(2S)-2-aminopropyl]-7-bromo-2-chloro-N-[(thiophen-2-yl)methyl]thieno[3,2-d]pyrimidin-4-amine] as the compound, how does the EC (2-fold) read?
Answer: ≤ 0.05 µM

Question: With `Cc1nc(NCc2ccco2)c2sc(C[C@H](C)N)c(C)c2n1` [Cpd 15, 6-[(2S)-2-aminopropyl]-N-[(furan-2-yl)methyl]-2,7-dimethylthieno[3,2-d]pyrimidin-4-amine] as the compound, how does the EC (2-fold) read?
Answer: 0.05 to 0.5 µM

Question: `Cc1c(C[C@H](C)N)sc2c(NCc3ccco3)nc(Br)nc12` [Cpd 38, 6-[(2S)-2-aminopropyl]-2-bromo-N-[(furan-2-yl)methyl]-7-methylthieno[3,2-d]pyrimidin-4-amine] was tested. Which EC (2-fold) did it give?
Answer: 0.5 to 1 µM

Question: For `Cc1c(C[C@H](C)N)sc2c(NCc3cccnc3F)nc(Cl)nc12` [Cpd 60, 6-[(2S)-2-aminopropyl]-2-chloro-N-[(2-fluoropyridin-3-yl)methyl]-7-methylthieno[3,2-d]pyrimidin-4-amine], which EC (2-fold) is on record?
Answer: 1.5 to 3 µM

Question: Which EC (2-fold) does the source give for `Cc1c(C[C@@H](N)CO)sc2c(NCc3cccs3)nc(Cl)nc12` [Cpd 56, (2R)-2-amino-3-(2-chloro-7-methyl-4-{[(thiophen-2-yl)methyl]amino}thieno[3,2-d]pyrimidin-6-yl)propan-1-ol] here?
Answer: ≤ 0.05 µM

Question: With `Cc1c(C[C@H](C)N)sc2c(NCc3ccno3)nc(Cl)nc12` [Cpd 39, 6-[(2S)-2-aminopropyl]-2-chloro-7-methyl-N-[(1,2-oxazol-5-yl)methyl]thieno[3,2-d]pyrimidin-4-amine] as the compound, how does the EC (2-fold) read?
Answer: 0.05 to 0.5 µM

Question: With `CCc1c(C[C@H](C)N)sc2c(NCc3ccco3)nc(Cl)nc12` [Cpd 77, 6-[(2S)-2-aminopropyl]-2-chloro-7-ethyl-N-[(furan-2-yl)methyl]thieno[3,2-d]pyrimidin-4-amine] as the compound, how does the EC (2-fold) read?
Answer: 0.05 to 0.5 µM

Question: `Cc1c(C[C@@H](N)CCO)sc2c(NCc3ccco3)nc(Cl)nc12` [Cpd 97, (3S)-3-amino-4-(2-chloro-4-{[(furan-2-yl)methyl]amino}-7-methylthieno[3,2-d]pyrimidin-6-yl)butan-1-ol] was tested. Which EC (2-fold) did it give?
Answer: ≤ 0.05 µM

Question: How did the EC (2-fold) turn out when `CC[C@H](N)Cc1sc2c(NCc3ccns3)nc(Cl)nc2c1C` [Cpd 62, 6-[(2S)-2-aminobutyl]-2-chloro-7-methyl-N-[(1,2-thiazol-5-yl)methyl]thieno[3,2-d]pyrimidin-4-amine] was run?
Answer: 0.05 to 0.5 µM

Question: `Cc1c(C[C@H](C)N)sc2c(NCc3ncccc3F)nc(Cl)nc12` [Cpd 59, 6-[(2S)-2-aminopropyl]-2-chloro-N-[(3-fluoropyridin-2-yl)methyl]-7-methylthieno[3,2-d]pyrimidin-4-amine] was tested. Which EC (2-fold) did it give?
Answer: 0.5 to 1 µM
